Reference: publication PMC12766730, “Controlled Self-Immolative Release of β‑Lapachone via an Optimized para-Hydroxybenzyl Linker for Targeted Pancreatic Cancer Therapy” (Journal of the American Chemical Society, 2025)
Where two headings read alike, the source gives them in different places.

What was measured:
[1] = HPLC stability assay of prodrugs in buffers pH 3, 5, 7, 7.4 (PBS), 9 at 37 °C for 72 h without trigger; type: physicochemical; settings: 37 °C, 72 h, pH 3–9
Protocol: The diastereomeric mixture of each β-glucuronide–PHB-β-lapachone prodrug (16a–j) and PAB derivative 22 were then tested for stability in citrate-phosphate buffers across a range of pHs (3, 5, 7, 7.4 (PBS), 9) via an HPLC stability assay. For derivatives 16a, 16b, 16d, 16e, 16h, and 16j, when no β-glucuronidase enzyme was added, both diastereomers of 16 were fully stable at 37 °C for 72 h (Figures a,d, S63, S64, S66–68, S71, and S73). […] This premature release was greatest at acidic pH 3 for 16g, with very minimal lapachone release detected at pH 5–9 (Figure c). The released lapachone was quantified and compared to the starting concentration of each prodrug to calculate the percent of the prodrug that had been prematurely released (Figures f,g, S76). […] Therefore, a trade-off exists between ring activation, improving the release rate from 3 while also decreasing prodrug stability, and it rendered 16g clinically disadvantageous.  5 Stability of prodrugs is pH dependent. The representative HPLC traces for (a) a stable prodrug 16a and (b) an unstable prodrug 16g are shown after incubation at 37 °C in pH 7.4 PBS buffer. […] (c) The area of the lapachone peak for 16g normalized to the IS was plotted, displaying substantial growth over time at pH 3. […] For panels c–g, each value is plotted as the mean ± SD of three replicates. The HPLC traces (Figures S50–S62) and peak area graphs (Figures S63–S75) for all other derivatives can be found in the Supporting Information. The stability of 26 was also evaluated from pH 3–9 (Figures d,f–h S86–S87). […] This degradation was the largest at pH 9, with a measurable decrease in the prodrug peak area after 72 h (Figure g). The lapachone released after 72 h was quantified using a standard curve (Tables S6.1–S6.2). At pH 3 and 5, approximately 0.2% of the total prodrug lapachone had been released.

[2] = tested on: PANC-1; test: PDAC cell viability after 72 h of treatment, PANC-1; type: cell-based; settings: Homo sapiens, PANC-1, exogenous β-glucuronidase added
Protocol: (§1) All ortho-quinone prodrug derivatives were tested on two pancreatic cancer cell lines, PANC-1 and AsPC-1, to assess efficacy in cell killing (Figures , S88–89, S91, Tables , and S8.1). Exogenous β-glucuronidase was added to the cell media to mimic the extracellular enzyme present in the TME. […] Those derivatives with release rates slower than that of 16a, like 16e, had less efficacy in cells comparatively (Table ).
(§2) 7 PDAC cell viability with prodrug treatment. Representative PANC-1 (a) and AsPC-1 (b) cell viability data of four β-lapachone prodrug derivatives after 72 h of treatment with exogenous β-glucuronidase added. Panels (c, d) show the toxicity of functional prodrugs up to 100 μM in PANC-1 (c) and AsPC-1 (d) cells without exogenous β-glucuronidase enzyme present after 72 h incubation.
(§3) To assess the TW of the prodrug derivatives, we tested each of them in both the PANC-1 and AsPC-1 cell lines at up to 100 μM without the β-glucuronidase enzyme present. In agreement with the HPLC stability assay data, we saw no toxicity in all stable prodrug derivatives up to this concentration (Figure c,d). […] In comparison, all the stable glucuronide prodrug derivatives retained 100% viability at 100 μM. […] It is generally considered that a drug has a good therapeutic safety profile if the TI is greater than 10, which our best derivatives far exceed, signaling that our prodrug is safe to deliver systemically in future in vivo experiments and should not cause any adverse effects in areas where β-glucuronidase is not overexpressed. ,

[3] = tested on: AsPC-1; test: PDAC cell viability after 72 h of treatment, AsPC-1; type: cell-based; settings: Homo sapiens, ASPC1, exogenous β-glucuronidase added, average ± SD of biological replicates, read-out: AsPC-1 IC50
Protocol: as §1, §2, §3

[4] = tested on: PANC-1; test: Reactive oxygen species generation after 24 h treatment, PANC-1; type: cell-based
From the text: (§4) 8 Target expression, ROS production, and quinone methide toxicity in PDAC Cell Lines. […] The A549 cell line was used as a positive control for NQO1 enzyme expression, and the HL-60 cell line was used as a positive control for 5-LO enzyme expression. For β-glucuronidase expression, two consecutive technical replicates are shown for each biological replicate, with all three biological replicates represented for both cell lines. […] Results were normalized to baseline cellular ROS activity as 0 and positive control tert-butyl hydrogen peroxide (TBHP) as 100. Adjusted p-values of 0.0012 (**) and <0.0001 (****) are shown for statistically significant comparisons.

[5] = tested on: AsPC-1; test: Reactive oxygen species generation after 24 h treatment, AsPC-1; type: cell-based
From the text: as §4

[6] = design: method as in Dunsmore et al.; settings: k obs of compound 4 previously reported, ref Dunsmore et al., cited from earlier work
[7] = HPLC stability assay of prodrugs in buffers pH 3, 5, 7, 7.4 (PBS), 9 at 37 °C for 72 h without trigger; type: physicochemical; settings: after dilution into aqueous buffer
[8] = design: method as in Gong et al.; settings: pH 7.4; 5 equiv H2O2; ref Gong et al.; cited from earlier work
[9] = no extracellular enzyme, compared to β-lapachone

COc1cc(O[C@@H]2O[C@H](C(=O)O)[C@@H](O)[C@H](O)[C@H]2O)ccc1CC1(O)C(=O)C2=C(OC(C)(C)CC2)c2ccccc21 (mixture of isomers) [16f]
stability of the prodrug without triggering enzyme [1]: trace β-lapachone release was detected
IC50 ([2]; average ± SD of biological replicates, read-out: PANC-1 IC50): 700 ± 200 nM
IC50 ([2]; representative experiment, read-out: IC50 on PANC-1, representative viability data (Figure 7a)): 600 nM
IC50 [3]: 2900 ± 60 nM
ROS generation without β-glucuronidase [4, 9]: significantly less ROS than β-lapachone alone
ROS generation with β-glucuronidase ([4]; β-glucuronidase added): restored generation of ROS
ROS generation without β-glucuronidase [5, 9]: significantly less ROS than β-lapachone alone
ROS generation with β-glucuronidase ([5]; β-glucuronidase added): restored generation of ROS

CC1(C)CCC2=C(O1)c1ccccc1C(O)(Cc1ccc(N)cc1)C2=O (stereo not drawn) [compound 4]
half-life of quinone release at pH 5 ([6]; pH 5): 101 ± 7 h
t 1/2 at pH 6 (drug release half-life) ([6]; pH 6): 931 h

CC1(C)CCC2=C(O1)c1ccccc1C(O)(Cc1ccc(B3OC(C)(C)C(C)(C)O3)cc1)C2=O (stereo not drawn) [compound 24]
time to complete hydrolysis into boronic acid 26 [7]: ≤ 5 min
time to complete release of 1 [8]: ≤ 2 h
